Test results: patent publication US12465050B2, “Compositions comprising a pyridine carboxylate herbicide and protoporphyrinogen oxidase (protox) inhibitor herbicides” (priority 2018, dated 2025)

What was measured:
Format in all cases: in vivo
[1] = system: Capsella bursa-pastoris (shepherd's purse); assay: Greenhouse postemergence herbicidal effect on CAPBP
Source text: (§1) Greenhouse Trial Methodology—Evaluation of Postemergence Herbicidal Effect
(§2) Seeds of the desired test plant species were planted in a 90:10% v/v (volume/volume) mixture of PRO-MIX® BX (Premier Tech Horticulture, Quakertown, Pa., USA) and PROFILE® GREENS GRADE™ (Profile Products LLC, Buffalo Grove, Ill., USA) planting mixture, which typically has a pH of 5.2 to 6.2 and an organic matter content of at least 50 percent, in plastic pots with a surface area of 103.2 square centimeters (cm^2). In some aspects or embodiments, to help ensure good germination and healthy plants, a fungicide treatment and/or other chemical or physical treatment was applied. The plants were grown for 7-36 days (d) in a greenhouse with an approximate 14-hour (h) photoperiod which was maintained at about 23° C. during the day and 22° C. during the night. Nutrients and water were added on a regular basis and supplemental lighting was provided with overhead metal halide 1000-Watt lamps as necessary. The plants were employed for testing when they reached the second or third true leaf stage.
(§3) Emulsifiable concentrates of each of each pyridine carboxylate herbicide (Compound A or Compound B) were prepared at 100 grams acid equivalent per liter (g ae/L). The emulsifiable concentrates also included a safener, cloquintocet mexyl, at 120 grams active ingredient per liter (g ai/L). An aliquot of each emulsifiable concentrate was placed in a 25 mL glass vial and diluted with an aqueous mixture of 1.25% (v/v) ACTIROB® B esterified rapeseed oil (Bayer Crop Science, Research Triangle Park, N.C., USA) or MSO® Concentrate with LECI-TECH® methylated soybean oil (Loveland Products, Loveland, Colo., USA) to obtain concentrated stock solutions at the highest application rate for each herbicide, based upon a 12 milliliter (mL) application volume at a rate of 187 liters per hectare (L/ha). The concentrated stock solutions were further diluted with an aqueous mixture of 1.25% v/v ACTIROB® B or MSO® Concentrate with LECI-TECH® to obtain stock solutions at reduced application rates for each herbicide. Spray solutions of the herbicide combinations (Compound A or Compound B plus PROTOX inhibitor herbicide) were prepared by adding weighed amounts or aliquots of the PROTOX inhibitor herbicides to the stock solutions of Compound A or Compound B to form 12-mL spray solutions in two-way combinations. […]
(§4) The treated plants and control plants were placed in a greenhouse as described above and watered by sub-irrigation to prevent wash-off of the test compounds. After 20-22 d, the condition of the test plants as compared with that of the control plants was determined visually and scored on a scale of 0 to 100 percent where 0 corresponds to no injury and 100 corresponds to complete kill.

[2] = system: Amaranthus retroflexus (pigweed); assay: Greenhouse postemergence herbicidal effect on AMARE
Source text: as §1, §2
(§5) Emulsifiable concentrates of each of each pyridine carboxylate herbicide (Compound A or Compound B) were prepared at 100 grams acid equivalent per liter (g ae/L). The emulsifiable concentrates also included a safener, cloquintocet mexyl, at 120 grams active ingredient per liter (g ai/L). An aliquot of each emulsifiable concentrate was placed in a 25 mL glass vial and diluted with an aqueous mixture of 1.25% (v/v) ACTIROB® B esterified rapeseed oil (Bayer Crop Science, Research Triangle Park, N.C., USA) or MSO® Concentrate with LECI-TECH® methylated soybean oil (Loveland Products, Loveland, Colo., USA) to obtain concentrated stock solutions at the highest application rate for each herbicide, based upon a 12 milliliter (mL) application volume at a rate of 187 liters per hectare (L/ha). The concentrated stock solutions were further diluted with an aqueous mixture of 1.25% v/v ACTIROB® B or MSO® Concentrate with LECI-TECH® to obtain stock solutions at reduced application rates for each herbicide. Spray solutions of the herbicide combinations (Compound A or Compound B plus PROTOX inhibitor herbicide) were prepared by adding weighed amounts or aliquots of the PROTOX inhibitor herbicides to the stock solutions of Compound A or Compound B to form 12-mL spray solutions in two-way combinations.
(§6) The spray solutions were applied to the plant material with an overhead Mandel track sprayer equipped with 8002E nozzles calibrated to deliver 187 L/ha over an application area of 0.503 square meters (m^2) at a spray height of 18 inches (43 centimeters (cm)) above the average plant canopy. Control plants were sprayed in the same manner with the solvent blank. All pyridine carboxylate herbicide (component a) application rates are given as “g ae/ha” and all PROTOX inhibitor herbicide (component b) application rates are given as “g ai/ha.”
as §4

[3] = system: Papaver rhoeas (herbicide-resistant poppy); assay: Greenhouse postemergence herbicidal effect on PAPRH-RES
Source text: as §1, §2, §3, §4

[4] = system: Viola tricolor (wild pansy); assay: Greenhouse postemergence herbicidal effect on VIOTR
Source text: as §1, §2, §5, §6, §4

[5] = system: Kochia scoparia (kochia); assay: Greenhouse postemergence herbicidal effect on KCHSC
Source text: as §1, §2, §5, §6, §4

[6] = system: Sorghum vulgare (sorghum); assay: Greenhouse postemergence herbicidal effect on SORVU
Source text: as §1, §2
Emulsifiable concentrates of each of each pyridine carboxylate herbicide (Compound A or Compound B) were prepared at 100 grams acid equivalent per liter (g ae/L). The emulsifiable concentrates also included a safener, cloquintocet mexyl, at 120 grams active ingredient per liter (g ai/L). […]
as §4

[7] = Compound A 7.5, Oxyfluorfen 0 g/ha
[8] = Compound A 10, Oxyfluorfen 0 g/ha
[9] = Compound A 15, Oxyfluorfen 0 g/ha
[10] = Compound A 7.5, Pyraflufen-ethyl 0 g/ha
[11] = Compound A 7.5, Saflufenacil 0 g/ha
[12] = Compound A 10, Pyraflufen-ethyl 0 g/ha
[13] = Compound A 10, Saflufenacil 0 g/ha

## N#CCOC(=O)c1nc(-c2ccc3cc[nH]c3c2F)c(F)c(N)c1Cl [Compound A, cyanomethyl 4-amino-3-chloro-5-fluoro-6-(7-fluoro-1H-indol-6-yl)pyridine-2-carboxylate]
[1]; [7]
  % visual injury, Obs: 45%
[1]; [8]
  % visual injury, Obs: 55%
[1]; [9]
  % visual injury, Obs: 55%
[2]; [10]
  % visual injury, Obs: 90%
[2]; [11]
  % visual injury, Obs: 88%
[2]; [12]
  % visual injury, Obs: 85%
[2]; [13]
  % visual injury, Obs: 88%
[3]; [7]
  % visual injury, Obs: 96%
[3]; [8]
  % visual injury, Obs: 98%
[3]; [9]
  % visual injury, Obs: 100%
[4]; Compound A 7.5, Bifenox 0 g/ha
  % visual injury, Obs: 45%
[4]; [7]
  % visual injury, Obs: 13%
[4]; Compound A 10, Bifenox 0 g/ha
  % visual injury, Obs: 15%
[4]; [8]
  % visual injury, Obs: 15%
[4]; [9]
  % visual injury, Obs: 15%
[5]; Compound A 7.5, Bifenox 0 g/ha
  % visual injury, Obs: 63%
[5]; Compound A 7.5, Carfentrazone-ethyl 0 g/ha
  % visual injury, Obs: 50%
[5]; [7]
  % visual injury, Obs: 63%
[5]; Compound A 7.5, Pyraclonil 0 g/ha
  % visual injury, Obs: 50%
[5]; [10]
  % visual injury, Obs: 70%
[5]; Compound A 10, Bifenox 0 g/ha
  % visual injury, Obs: 70%
[5]; Compound A 10, Carfentrazone-ethyl 0 g/ha
  % visual injury, Obs: 58%
[5]; [8]
  % visual injury, Obs: 65%
[5]; Compound A 10, Pyraclonil 0 g/ha
  % visual injury, Obs: 58%
[5]; [12]
  % visual injury, Obs: 70%
[5]; [9]
  % visual injury, Obs: 63%
[6]; [11]
  % visual injury, Obs: 0%
[6]; [13]
  % visual injury, Obs: 0%
